{
  "source": "patent US20200064357A1",
  "about": "“METHODS FOR DETERMINING AND MONITORING GASTROINTESTINAL INFLAMMATION” (Protagonist Therapeutics, Inc., priority 2016, published 2020)",
  "key": {"Sprague-Dawley rats [1]": {"test_system": "Sprague-Dawley rats", "experiment": "Serum LCN2, TNBS rat colitis model, ELISA (Example E2)", "type": "in vivo", "conditions": "per ml of serum, vs vehicle", "procedure": "The animals were grouped into sham, vehicle, and Peptide 993 treatment at 31 mg/kg/day. Feces were collected from the distal colon of rats and were immediately frozen at the time of necropsy. The feces samples were weighed and homogenized in extraction buffer (PBS pH 7.4 containing Pierce Protease Inhibitors, 3× volume:weight). The samples were incubated on ice for 90 minutes, with intermittent vortexing for complete homogenization. After centrifugation at 3000 g at 4 C, the homogenates were transferred to fresh tubes and subjected to another centrifugation at 14000 g at 4 C. The cleared supernatants were saved in multiple aliquots and stored at −80 C until analysis.\nThe serum samples were immediately frozen and thawed only once before use in the ELISA. For LCN2, the samples were diluted at different ratios with assay dilution buffer to capture the large variation in concentration amongst the different groups. The dilution ratios used were 1:10 (for sham), 1:1000, 1:2000 and 1:10000 (vehicle and Peptide 993). Fecal Lipocalin2(LCN2)/NGAL analysis:\nSerum samples were analyzed for LCN2 concentration using the above ELISA protocol. Serum samples were used at dilutions ranging from 1:[…] to ensure that the measurements were within the range and sensitivity of the kit. […] Statistical analysis was performed using 1-Way-ANOVA with Dunnetts's multiple comparison."}, "Sprague-Dawley rats [2]": {"test_system": "Sprague-Dawley rats", "experiment": "miR-223-3p expression in distal colon and serum, TNBS rat colitis model (Example E3)", "type": "in vivo", "conditions": "31 mg/kg/day, vs vehicle group", "procedure": "Animals from the sham group (without TNBS exposure), the vehicle group (exposed to TNBS and treated with vehicle only) and the group treated with Peptide 993 (exposed to TNBS and treated with Peptide 993 at 31 mg/kg/day) were subjected for gene expression and miroRNA analysis\nFor extraction of microRNA from distal colon homogenate, the RNeasy Plus Mini Kit and the RNeasy MinElute Cleanup Kit (Qiagen) were used. For extraction of microRNA from serum, miRNeasy Serum/Plasma Kit (Qiagen) was used. To verify uniformity of microRNA extraction, a synthetic microRNA cel-miR-39-3p, at a fixed concentration, was spiked into both distal colon homogenates and serum samples. The microRNAs purified from distal colon and serum was used in the Advanced miRNA cDNA Synthesis Kit (Applied Biosystems) to obtain cDNA templates for the quantative real time PCR. The expression of miR-223-3p, a microRNA known to negatively regulate CLDN8 gene expression, was measured using TaqMan Advanced miRNA assay (Applied Biosystems). The endogenous control miR-16-5p was used for normalization in the distal colon, and the endogenous control miR-24-3p was used for normalization in the serum. Relative expression of miR-223-3p was calculated using the normalized Ct values. […]"}, "Sprague-Dawley rats [3]": {"test_system": "Sprague-Dawley rats", "experiment": "Biomarkers in colon of TNBS-induced acute colitis rats (Example E1)", "type": "in vivo, rat", "description": "The effect of treatment with peptide inhibitors of IL23R on inflammatory markers associated with IL23 signaling was examined in a rat model of acute colitis. Acute colitis was induced in Sprague-Dawley rats by a single intra-rectal instillation of 2,4,6-Trinitrobenzenesulfonic acid (TNBS) followed by efficacy analysis at day seven. Pharmacodynamic (PD) biomarkers were examined using enzyme-linked immunosorbent assay (ELISA), quantitative reverse transcription polymerase chain reaction, or immunohistochemistry analysis of colon, feces, or serum samples obtained from colitic rats treated with Peptide 993, Peptide 1185, or Peptide 980.\nAcute colitis was induced by providing 7-week-old female Sprague-Dawley rats with various dosages of 64 mg/kg or 48 mg/kg of TNBS in 50% ethanol (TNBS/ethanol) administered intrarectally at Day 0. Peptide inhibitors were administered orally two or three times a day at various dosages and were provided in drinking water at various dosages, for 8 days starting approximately 24 hours (Day −1) prior TNBS inoculation.\nLevels of a number of inflammatory biomarkers were examined in the colons. The distal colon tissue samples, designated for protein expression analysis, were flash frozen after collection. For protein extraction, the samples were thawed, weighed and homogenized in the extraction buffer (PBS pH 7.2 supplemented with Protease Inhibitors, 3× volume:weight). The homogenates were centrifuged at 13 krpm at 4° C. for 15 minutes, a total of two times to remove the debris. The supernatants were saved in multiple aliquots in −80° C. and subsequently used for protein expression analysis on ELISA. The total protein in each sample was quantified using BCA assay. MPO, IL-10, IL-6, IL-17A and IL-22 biomarker protein expression in the distal colon samples was analyzed using commercially available rat ELISA kits."}, "Sprague-Dawley rats [4]": {"test_system": "Sprague-Dawley rats", "experiment": "Disease pathology in TNBS-induced rat colitis: colon weight/length, colonic score, histology (Example E4)", "type": "in vivo", "procedure": "In the first model, acute colitis was induced in Sprague-Dawley rats by a single intra-rectal instillation of TNBS followed by efficacy analysis at day seven. The animals were grouped into sham+vehicle (PO TID), TNBS+vehicle (PO TID), anti-IL23p19 antibody (4 mg/kg/day IP, Day −1 and Day 3), and Peptide 993 treatment at 9, 28, or 61 mg/kg/day (PO TID+in drinking water). Sham indicates animals not treated with TNBS.\nFollowing treatment, weight and length were determined from entire colon; colonic score was evaluated as sum of adhesion (0-2), stricture (0-3), ulcer (0-5), and colon wall thickness (0-2); histology was evaluated by a pathologist as sum of mucosal/submucosal inflammation (0-5), transmural inflammation (0-5), erosion (0-5), and gland loss (0-5). Values shown as mean±SD (FIGS. 9A-9C). Statistical significance was assessed by One-way ANOVA with post-hoc Dunnett's vs. Vehicle control: **p≤0.01; ***p≤0.001; ****p≤0.0001; ns, not significant."}, "[5]": {"conditions": "protein by ELISA, vs vehicle treated controls, Peptide 993 65 mg/kg/day"}, "[6]": {"conditions": "protein by ELISA, vs vehicle treated controls, Peptide 993 65 mg/kg/day, Peptide 980 37 mg/kg/day"}, "[7]": {"conditions": "TNBS rats, day seven, 9, 28 or 61 mg/kg/day PO TID + in drinking water, vs vehicle"}, "[8]": {"conditions": "acute TNBS-induced rat colitis model, oral treatment"}},
  "data": [
    {"molecule": "CC(=O)NC(CCCNC(=N)N)C(=O)NC1CCSCC(C(=O)NC(Cc2ccc(OCCN)cc2)C(=O)NC(Cc2ccc3ccccc3c2)C(=O)NC2(C(=O)NC(CCC(=O)O)C(=O)NC(CC(N)=O)C(=O)NC(CC(N)=O)C(N)=O)CCOCC2)NC(=O)C(CCC(N)=O)NC(=O)C(Cc2c[nH]c3ccccc23)NC(=O)C(C(C)O)NC(=O)C(CCC(N)=O)NC1=O", "note": "(centres unmarked) [Peptide 993, Ac-[(D)-Arg]-cyclo[[Abu]-QTWQC]-[Phe[4-(2-aminoethoxy)]]-[2-Nal]-[4-amino-4-carboxy-tetrahydropyran]-ENN-NH2]", "values": [
      {"measurement": "serum LCN2 concentration", "setting": "Sprague-Dawley rats [1]", "value": "statistically significant decrease"},
      {"measurement": "miR-223-3p expression in the distal colon", "setting": "Sprague-Dawley rats [2]; normalized to miR-16-5p", "value": "not statistically significant, however there was a marked reduction in the average expression of the group"},
      {"measurement": "miR-223-3p expression in serum", "setting": "Sprague-Dawley rats [2]; normalized to miR-24-3p", "value": "no apparent change"},
      {"measurement": "IL-1β gene expression level, distal colon", "setting": "Sprague-Dawley rats [3]; data not shown, trend similar to the protein reduction", "value": "but not IL-1β"},
      {"measurement": "IL-1β level in colon", "setting": "Sprague-Dawley rats [3]; [5]", "value": "reduced"},
      {"measurement": "IL-6 level in colon", "setting": "Sprague-Dawley rats [3]; [5]", "value": "reduced"},
      {"measurement": "IL-17A level in colon", "setting": "Sprague-Dawley rats [3]; [5]", "value": "reduced"},
      {"measurement": "IL-22 level in colon", "setting": "Sprague-Dawley rats [3]; [6]", "value": "reduced"},
      {"measurement": "MPO level in colon", "setting": "Sprague-Dawley rats [3]; [6]", "value": "reduced"},
      {"measurement": "colon weight-to-length ratio", "setting": "Sprague-Dawley rats [4]; [7]", "value": "significant and dose-dependent reduction"},
      {"measurement": "histopathological changes in the colon", "setting": "Sprague-Dawley rats [4]; [7]", "value": "normalization"},
      {"measurement": "macroscopic changes in the colon (colonic score)", "setting": "Sprague-Dawley rats [4]; [7]", "value": "normalization"},
      {"measurement": "activity compared with neutralizing anti-IL-23p19 monoclonal antibody (4 mg/kg/day IP)", "setting": "Sprague-Dawley rats [4]; [8]", "value": "comparable"},
      {"measurement": "disease parameters", "setting": "Sprague-Dawley rats [4]; [8]", "value": "significant and dose-dependent attenuation"}
    ]}
  ]
}
